Calls of active or inactive are those of the source. The calls are words filed in the database; no cut-off is given here.
Legend:
[1] = Ratio of MBC for bactericidal activity against Bacillus subtilis CMCC (B) 63501 to MIC for antibacterial activity against Bacillus subtilis CMCC (B) 63501; assay type: functional
[2] = target: T1, Cell division protein FtsZ (Staphylococcus aureus) (UniProt P0A031); experiment: Induction of Staphylococcus aureus FtsZ polymerization expressed in Escherichia coli BL21 (DE3) assessed as increase in absorbance at 2 to 8 ug/ml in presence of GTP by microplate reader method; settings: dose 2-8 µg/ml, DDE = dose-dependent effect
T1 sequence (whole entry): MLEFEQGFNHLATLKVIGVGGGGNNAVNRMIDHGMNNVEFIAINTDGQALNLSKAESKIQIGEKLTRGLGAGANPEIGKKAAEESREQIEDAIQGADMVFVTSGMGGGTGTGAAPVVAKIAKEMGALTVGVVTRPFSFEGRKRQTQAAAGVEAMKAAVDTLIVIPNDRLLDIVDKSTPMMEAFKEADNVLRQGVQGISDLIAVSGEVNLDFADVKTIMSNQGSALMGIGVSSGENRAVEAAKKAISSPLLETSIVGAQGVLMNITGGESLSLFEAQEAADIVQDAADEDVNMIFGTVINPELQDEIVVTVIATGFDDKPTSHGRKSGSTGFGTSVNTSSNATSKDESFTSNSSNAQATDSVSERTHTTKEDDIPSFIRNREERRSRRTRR

Staphylococcus aureus [3] = experiment: Antibacterial activity against Staphylococcus aureus ATCC 29213 assessed as inhibition of bacterial growth incubated for 20 to 24 hrs by broth micro dilution method; assay type: functional; settings: time 20-24 hrs
Staphylococcus aureus [4] = experiment: Antibacterial activity against methicillin-resistant Staphylococcus aureus ATCC 33592 assessed as inhibition of bacterial growth incubated for 20 to 24 hrs by broth micro dilution method; assay type: functional; settings: time 20-24 hrs
Staphylococcus aureus [5] = experiment: Antibacterial activity against methicillin-resistant Staphylococcus aureus ATCC BAA-1720 assessed as inhibition of bacterial growth incubated for 20 to 24 hrs by broth micro dilution method; assay type: functional; settings: time 20-24 hrs
Staphylococcus aureus [6] = experiment: Antibacterial activity against vancomycin-intermediate Staphylococcus aureus Mu50 assessed as inhibition of bacterial growth incubated for 20 to 24 hrs by broth micro dilution method; assay type: functional; settings: time 20-24 hrs
[7] = system: Staphylococcus epidermidis; experiment: Antibacterial activity against Staphylococcus epidermidis ATCC 12228 assessed as inhibition of bacterial growth incubated for 20 to 24 hrs by broth micro dilution method; assay type: functional; settings: time 20-24 hrs
Bacillus subtilis [8] = experiment: Antibacterial activity against Bacillus subtilis CMCC (B) 63501 assessed as inhibition of bacterial growth incubated for 20 to 24 hrs by broth micro dilution method; assay type: functional; settings: time 20-24 hrs
Enterococcus faecium [9] = experiment: Antibacterial activity against Enterococcus faecium ATCC 49624 assessed as inhibition of bacterial growth incubated for 20 to 24 hrs by broth micro dilution method; assay type: functional; settings: time 20-24 hrs
Enterococcus faecalis = experiment: Antibacterial activity against Enterococcus faecalis ATCC 29212 assessed as inhibition of bacterial growth incubated for 20 to 24 hrs by broth micro dilution method; assay type: functional; settings: time 20-24 hrs
Escherichia coli [10] = experiment: Antibacterial activity against Escherichia coli ATCC 8739 assessed as inhibition of bacterial growth incubated for 20 to 24 hrs by broth micro dilution method; assay type: functional; settings: time 20-24 hrs
Escherichia coli [11] = experiment: Antibacterial activity against NDM-1 expressing Escherichia coli ATCC BAA2469 assessed as inhibition of bacterial growth incubated for 20 to 24 hrs by broth micro dilution method; assay type: functional; settings: time 20-24 hrs
Acinetobacter baumannii = experiment: Antibacterial activity against multi-drug resistant Acinetobacter baumannii ATCC 19606 assessed as inhibition of bacterial growth incubated for 20 to 24 hrs by broth micro dilution method; assay type: functional; settings: time 20-24 hrs
Klebsiella pneumoniae = experiment: Antibacterial activity against NDM-1 expressing Klebsiella pneumoniae ATCC BAA 2470 assessed as inhibition of bacterial growth incubated for 20 to 24 hrs by broth micro dilution method; assay type: functional; settings: time 20-24 hrs
Bacillus subtilis [12] = experiment: Bactericidal activity against Bacillus subtilis CMCC (B) 63501 assessed as inhibition of bacterial growth incubated for 24 hrs by resazurin dye based microtiter plate assay; assay type: functional
Staphylococcus aureus [13] = experiment: Bactericidal activity against Staphylococcus aureus ATCC 29213 assessed as inhibition of bacterial growth incubated for 24 hrs by resazurin dye based microtiter plate assay; assay type: functional
Enterococcus faecium [14] = experiment: Bactericidal activity against Enterococcus faecium ATCC 700221 assessed as inhibition of bacterial growth incubated for 24 hrs by resazurin dye based microtiter plate assay; assay type: functional
[15] = Ratio of MBC for bactericidal activity against Staphylococcus aureus ATCC 29213 to MIC for antibacterial activity against Staphylococcus aureus ATCC 29213; assay type: functional
Staphylococcus aureus [16] = experiment: Antibacterial activity against Staphylococcus aureus ATCC 29213 assessed reduction in viable bacterial count upto 4 times MIC measured after 8 hrs by time-kill kinetics assay; assay type: functional
Staphylococcus aureus [17] = experiment: Antibacterial activity against Staphylococcus aureus ATCC 29213 assessed as assessed as reduction in viable bacterial count upto 8 times MIC measured after 8 hrs by time-kill kinetics assay; assay type: functional
Staphylococcus aureus [18] = experiment: Antibacterial activity against methicillin-resistant Staphylococcus aureus ATCC BAA41 assessed as fractional inhibitory concentration index incubated for 24 hrs by checker board assay; assay type: functional
Staphylococcus aureus [19] = experiment: Antibacterial activity against methicillin-resistant Staphylococcus aureus ATCC BAA41 assessed as inhibition of bacterial growth incubated for 24 hrs by checker board assay; assay type: functional
Staphylococcus aureus [20] = experiment: Synergistic antibacterial activity against methicillin-resistant Staphylococcus aureus ATCC BAA41 assessed as inhibition of bacterial growth incubated for 24 hrs in presence of methicillin by checker board assay; assay type: functional
Staphylococcus aureus [21] = experiment: Induction of morphological changes in Staphylococcus aureus ATCC 29213 assessed as enlargement of cell size at 0.5 times MIC for 4 hrs by microscopic analysis; assay type: functional, organism-based
[22] = target: T1, Cell division protein FtsZ (Staphylococcus aureus); experiment: Binding affinity to Staphylococcus aureus FtsZ assessed as increase in alpha helix structure at 8 ug/ml incubated for 30 mins by circular dichroism method (reference value: 30.5 %); settings: dose 8.0 µg/ml
[23] = target: T1, Cell division protein FtsZ (Staphylococcus aureus); experiment: Binding affinity to Staphylococcus aureus FtsZ assessed as decrease in random coil structure at 8 ug/ml incubated for 30 mins by circular dichroism method (reference value: 34.5 %); parameters: scale not given: the % may be the effect or the level left; settings: dose 8.0 µg/ml
[24] = target: T1, Cell division protein FtsZ (Staphylococcus aureus); experiment: Binding affinity to Staphylococcus aureus FtsZ assessed as equilibrium binding constant by isothermal titration calorimetry
[25] = target: T2, Cell division protein FtsZ (Staphylococcus aureus, UniProt P0A031); experiment: Binding affinity to Staphylococcus aureus FtsZ assessed as dissociation constant by isothermal titration calorimetry
T2 sequence (P0A031 whole entry): T1 sequence (whole entry)

Erythrocyte = experiment: Hemolytic activity in Kunming mouse erythrocyte at 1 to 64 ug/ml incubated for 1 hr; assay type: toxicity, cell-based; settings: dose 1-64 µg/ml
[26] = Cytotoxicity against mouse L929 cells incubated for 48 hrs by MTT assay; assay type: toxicity, cell-based
Staphylococcus aureus [27] = experiment: Antibacterial activity against Staphylococcus aureus ATCC 29213 infected in L929 cells assessed as inhibition of bacterial growth incubated for 20 to 24 hrs by broth micro dilution method; assay type: functional; settings: time 20-24 hrs
Staphylococcus aureus [28] = experiment: Antibacterial activity against Staphylococcus aureus ATCC 29213 infected in HK-2 cells assessed as inhibition of bacterial growth incubated for 20 to 24 hrs by broth micro dilution method; assay type: functional; settings: time 20-24 hrs
Staphylococcus aureus [29] = experiment: Induction of drug resistance against Staphylococcus aureus ATCC 29213 assessed as fold increase in MIC after 16 passage; assay type: functional
Bacillus subtilis [30] = experiment: Induction of drug resistance against Bacillus subtilis CMCC (B) 63501 measured after 16 passages; assay type: functional; settings: dose <= 64.0 µg/ml, time 30.0 min

In the case of `CC1CCN(c2cc(/C=C/c3ccc(N(C)C)cc3)[n+](C)c3ccccc23)CC1.[I-]`, the Ratio [1] is reported as 1, the Activity [2] is reported as “Dde” and the MIC (Staphylococcus aureus [3]) is reported as 1 µg/mL. It also gave an MIC (Staphylococcus aureus [4]) of 0.5 µg/mL, an MIC (Staphylococcus aureus [5]) of 1 µg/mL and an MIC (Staphylococcus aureus [6]) of 1 µg/mL. For the same compound, the MIC [7] was 0.25 µg/mL, the MIC (Bacillus subtilis [8]) was 4 µg/mL and the MIC (Enterococcus faecium [9]) was 8 µg/mL. It also gave an MIC (Enterococcus faecalis) of 2 µg/mL, an MIC (Escherichia coli [10]) of 64 µg/mL and an MIC (Escherichia coli [11]) of 64 µg/mL. For the same compound, the MIC (Acinetobacter baumannii) was greater than 64 µg/mL, the MIC (Klebsiella pneumoniae) was greater than 64 µg/mL and the MBC (Bacillus subtilis [12]) was 4 µg/mL. The MBC (Staphylococcus aureus [13]) was 8 µg/mL, the MBC (Enterococcus faecium [14]) was 4 µg/mL and the Ratio [15] was greater than 4. For the same compound, the Activity (Staphylococcus aureus [16]) was 1000 CFU/ml, the Activity (Staphylococcus aureus [17]) was 1000 CFU/ml and the “fractional inhibitory concentration index (FICI)” value (Staphylococcus aureus [18]) was 0.3125. The MIC (Staphylococcus aureus [19]) was 8 µg/mL, the MIC (Staphylococcus aureus [20]) was 2 µg/mL and the Activity (Staphylococcus aureus [21]) was “Active”. The Activity [22] was 41%, the Activity [23] was 28.4% and the Kb [24] was 4.41 10^5/M. The Kd [25] was 3.84 µM, the IC5 (Erythrocyte) was 64 µg/mL and the IC50 at 48 h [26] was 12.8 µg/mL. The MIC (Staphylococcus aureus [27]) was 1 µg/mL, the MIC (Staphylococcus aureus [28]) was 1 µg/mL and the fold change (FC) (Staphylococcus aureus [29]) was 8. For the same compound, the Activity (Bacillus subtilis [30]) was “Active”.
